Where a name gives a salt, the structure may show the parent alone.
Target: T1, DMT1 (Homo sapiens, UniProt P49281)
T1 sequence (P49281 1-568): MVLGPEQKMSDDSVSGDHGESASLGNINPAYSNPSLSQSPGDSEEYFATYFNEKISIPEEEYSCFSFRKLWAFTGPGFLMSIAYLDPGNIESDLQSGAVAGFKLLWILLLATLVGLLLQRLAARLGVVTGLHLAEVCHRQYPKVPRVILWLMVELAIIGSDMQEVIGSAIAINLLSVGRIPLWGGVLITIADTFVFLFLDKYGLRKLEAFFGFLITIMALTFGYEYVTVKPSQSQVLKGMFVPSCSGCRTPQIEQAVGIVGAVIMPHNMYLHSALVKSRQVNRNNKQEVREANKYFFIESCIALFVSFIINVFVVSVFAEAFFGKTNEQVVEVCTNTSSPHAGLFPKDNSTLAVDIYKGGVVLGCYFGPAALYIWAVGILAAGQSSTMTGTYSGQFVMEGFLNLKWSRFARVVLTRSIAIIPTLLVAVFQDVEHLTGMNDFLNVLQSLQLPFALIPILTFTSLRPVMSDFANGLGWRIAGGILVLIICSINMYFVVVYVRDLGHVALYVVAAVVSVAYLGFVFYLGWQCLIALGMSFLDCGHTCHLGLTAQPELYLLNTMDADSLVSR
Test: DMT1 activity assay (IC50 activity level, Table 1)
Assay type: cell-based
Details: inhibition of DMT1
Source text: This example discloses various in vitro assay for testing and profiling test agents against DMT1 stably expressed in cells of either an endogenous or recombinant origin. These assays can use stable cell lines overexpressing DMT1 or intestinal cells and intestinal tissue expressing endogenous DMT1. DMT1 function could also be assessed in other cell types that express DMT1. Of greatest relevance would be the erythrocytes (e.g. K562 cells) or hepatocytes (e.g. […]).
DMT1 function can be assessed in a number of ways, including monitoring fluorescence changes of an iron fluorophore (e.g. calcein), monitoring uptake of radiolabelled iron (^55Fe or ^59Fe) (Picard et al., J. Biol. Chem., 2000, 275(46):35738-45 and Wetli et al., Chem. Biol. 2006 September; 13(9):965-72), or by assessing the current or transport of iron and other metals into the cells or tissues using standard electrophysiological techniques (Gunshin et al., Nature, 1997, 388(6641):482-8.).
Variations of these assays involve alterations of incubation times, the iron status of the cells and tissues (which may be modulated by chemical chelators or by harvesting from iron deficient animals), the metal cation detected and the pH of the reaction can generally be made by conventional techniques known to those skilled in the art.
The Example numbers provided in Table 1 correspond to the Examples herein: […]

Row | IC50 [nM] | Compound
1 | ≥ 1000 | CNC(=N)SCc1c(C)cc(C)c(CSC(=N)NC)c1C.Cl [Example 7, 1,3-di[(methylamidino)thiomethyl]-2,4,6-trimethylbenzene 4-methylbenzenesulfonate hydrochloride]
2 | ≥ 1000 | CN/C(=N\C#N)NCc1c(C)cc(C)c(CN/C(=N/C#N)NC)c1C [Example 2, 1,3-di[(2-cyano-3-methylguanidino)methyl]-2,4,6-trimethylbenzene]
3 | ≥ 1000 | N=C(N)Cc1cccc(CC(=N)N)c1 [Example 4, 2,2′-(1,3-phenylene)diacetimidamide]

System: not given
Test: not given
Details: not given

Row | Compound | melting point
4 | Cc1cc(CSC(=N)N)cc(CSC(=N)N)c1 (as salt: hydrobromid) [Example 3.3, (5-methyl-1,3-phenylene)bis(methylene)dicarbamimidothioate dihydrobromide] | 240 to 241 °C
5 | N=C(N)SCc1c(Cl)c(Cl)c(Cl)c(CSC(=N)N)c1Cl (as salt: hydrochloride) [Example 3.6, (2,4,5,6-tetrachloro-1,3-phenylene)bis(methylene)dicarbamimidothioate dihydrochloride] | 208 to 210 °C
6 | N=C(N)SCc1cccc2cccc(CSC(=N)N)c12 (as salt: hydrobromid) [Example 3.13, naphthalene-1,8-diylbis(methylene)dicarbamimidothioate dihydrobromide] | 230 to 233 °C
7 | Cc1cc(C)c(CSC(=N)N)cc1CSC(=N)N (as salt: hydrochloride) [Example 3.16, (4,6-dimethyl-1,3-phenylene)bis(methylene)dicarbamimidothioate dihydrochloride] | 248 to 251 °C
8 | Cc1cc(C)c(CNC(=N)N)c(C)c1CNC(=N)N (as salt: toluenesulfonate) [Example 1, N-(3-guanidinomethyl-2,4,6-trimethylbenzyl)guanidine, bis(p-toluenesulfonate)] | > 250 °C
9 | Cc1c(CSC(=N)N)cc(CSC(=N)N)c(C)c1Br (as salt: hydrochloride) [Example 3.17, (5-bromo-4,6-dimethyl-1,3-phenylene)bis(methylene) dicarbamimidothioate dihydrochloride] | 270 to 273 °C
10 | CN/C(=N\C#N)NCc1c(C)cc(C)c(CN/C(=N/C#N)NC)c1C [Example 2, 1,3-di[(2-cyano-3-methylguanidino)methyl]-2,4,6-trimethylbenzene] | 270 to 272 °C
11 | Cc1c(C)c(CSC(=N)N)c(C)c(CSC(=N)N)c1C (as salt: hydrochloride) [Example 3.5, (2,4,5,6-tetramethyl-1,3-phenylene)bis(methylene)dicarbamimidothioate dihydrochloride] | > 260 °C
12 | CC(C)c1cc(C(C)C)c(CSC(=N)N)cc1CSC(=N)N (as salt: hydrobromid) [Example 3.1, (4,6-diisopropyl-1,3-phenylene)bis(methylene)dicarbamimidothioate dihydrobromide] | 208 to 210 °C
13 | CCOC(=O)c1cc(C(=O)OCC)c(CSC(=N)N)cc1CSC(=N)N (as salt: hydrobromid) [Example 3.4, diethyl 4,6-bis(carbamimidoylthiomethyl)isophthalate dihydrobromide] | 237 to 238 °C
14 | N=C(N)SCc1n[nH]c(CSC(=N)N)n1 (as salt: hydrochloride) [Example 3.8, (1H-1,2,4-triazole-3,5-diyl)bis(methylene)dicarbamimidothiodate dihydrochloride] | 196 to 200 °C
15 | N#Cc1c(CSC(=N)N)cccc1CSC(=N)N (as salt: hydrobromid) [Example 3.14, (2-cyano-1,3-phenylene)bis(methylene)dicarbamimidothioate dihydrobromide] | 270 to 272 °C (dec.)
16 | N=C(N)SCc1cccc(CSC(=N)N)n1 (as salt: hydrobromid) [Example 3.12, pyridine-2,6-diylbis(methylene)dicarbamimidothioate dihydrobromide] | 208 to 210 °C
17 | N=C(N)SCc1nnc(CSC(=N)N)n1N (as salt: hydrochloride) [Example 3.7, (4-amino-4H-1,2,4-triazole-3,5-diyl)bis(methylene)dicarbamimidothioate dihydrochloride] | 213 °C (dec.)

Second part, the molecule after the results:

Row | melting point | Compound
18 | 175 to 178 °C | Cc1c(O)c(C)c(CSC(=N)N)c(C)c1CSC(=N)N (as salt: hydrochloride) [Example 3.19, (5-hydroxy-2,4,6-trimethyl-1,3-phenylene)bis(methylene) dicarbamimidothioate dihydrochloride]
19 | 223 to 225 °C | Cc1cc(CSC(=N)N)c(O)c(CSC(=N)N)c1 (as salt: hydrobromid) [Example 6.2, (2-hydroxy-5-methyl-1,3-phenylene)bis(methylene)dicarbamimidothioate dihydrobromide]
20 | 204 to 206 °C | Cc1cc(C)c(C(C)SC(=N)N)c(C)c1C(C)SC(=N)N (stereo not shown) (as salt: hydrobromid) [Example 6.1, 2-{1-[3-(1-carbamimidoylsulfanylethyl)-2,4,6-trimethylphenyl]ethyl}-isothiourea dihydrobromide]
21 | > 265 °C | Cc1c(C)c(C)c(CSC(=N)N)c(CSC(=N)N)c1C (as salt: hydrobromid) [Example 3.22, (3,4,5,6-tetramethyl-1,2-phenylene)bis(methylene)dicarbamimidothioate dihydrobromide]
22 | 223 to 225 °C | CNC(=N)SCc1c(C)cc(C)c(CSC(=N)NC)c1C.Cl [Example 7, 1,3-di[(methylamidino)thiomethyl]-2,4,6-trimethylbenzene 4-methylbenzenesulfonate hydrochloride]
23 | 236 to 239 °C | COc1c(CSC(=N)N)cc(C)cc1CSC(=N)N (as salt: hydrobromid) [Example 3.18, (2-methoxy-5-methyl-1,3-phenylene)bis(methylene)dicarbamimidothioate dihydrobromide]
24 | 215 to 218 °C | N=C(N)SC(=O)c1sc(C(=O)SC(=N)N)c(Cl)c1Cl (as salt: hydrochloride) [Example 9, 2-(5-carbamimidoylsulfanecarbonyl-3,4-dichlorothiophene-2-carbonyl)isothiourea dihydrochloride]
25 | 185 to 187 °C | Cc1nc(C)c(CSC(=N)N)c(C)c1CSC(=N)N (as salt: hydrochloride) [Example 8, (2,4,6-trimethylpyridine-3,5-diyl)bis(methylene)dicarbamimidothioate dihydrochloride]
26 | 200 to 205 °C | N=C(N)Cc1cccc(CC(=N)N)c1 [Example 4, 2,2′-(1,3-phenylene)diacetimidamide]
27 | 258 to 261 °C | Cc1c(CSC(=N)N)cccc1CSC(=N)N (as salt: hydrobromid) [Example 3.21, (2-methyl-1,3-phenylene)bis(methylene)dicarbamimidothioate dihydrobromide]
28 | 142 to 144 °C | CC(C)(SC(=N)N)c1cccc(C(C)(C)SC(=N)N)c1 (as salt: hydrobromid) [Example 6, 2-{1-[3-(1-carbamimidoylsulfanyl-1-methylethyl)phenyl]-1-methylethyl}-isothiourea dihydrobromide]

From patent US20100240713A1, “AROMATIC AND HETEROAROMATIC COMPOUNDS USEFUL IN TREATING IRON DISORDERS” (XENON PHARMACEUTICALS INC., priority 2007, published 2010)
